Laboratory results taken from paper PMC12455390, “Three Is Better than One: A Multimetal Complex that Triggers Immunogenic Cell Death” (Angewandte Chemie (International Ed. in English), 2025).
Like-named read-outs stand apart in the source and are kept apart here.

Columns and labels:
[1] = target: T1, human TrxR2 (Homo sapiens, UniProt Q9NNW7); test: Isolated TrxR2 inhibition (DTNB assay); type: biochemical; details: 75 min incubation at 37 °C
T1 construct: purchased SeLENOZYME
Description: (§1) A number of gold and ruthenium complexes are known to inhibit members of the TrxR enzyme family.^[ [27] ^] […] We thus sought to evaluate the activity of our gold‐ and ruthenium‐containing complexes against TrxR1 (found in the cytoplasm) and TrxR2 (found in the mitochondria).
(§2) Human TrxR1 and TrxR2 were purchased from SeLENOZYME and inhibition studies were carried out by means of a DTNB assay in 96-well culture plates. Enzymes were diluted to achieve a concentration of 3.58 U mL^−1. The compounds subject to testing were freshly dissolved in DMF. 10 μL aliquots of the enzyme solution and 10 μL of solutions of the compounds at graded concentrations or 10 μL of 1% DMF in PBS (positive control) were added and incubated for 75 min at 37 °C. A second control consisted of 10 µL of the highest concentration of each compound with 10 µL of PBS. After the chosen incubation time, 10 µL of NADPH (10 mM), 160 µL TE buffer (50 mM Tris-HCl, 2 mM EDTA, pH 7.5) and 10 µL ethanolic DTNB (50 mM) were added producing a total reaction volume of 200 µL. After proper mixing, the formation of 5-TNB was monitored with a microplate reader at 405 nm. This was done 10 times at 30 second intervals over the course of about 5 min. A TNB standard curve (0-2 mM in 200 µL TE buffer) was used to calculate the exact DTNB consumed in the reaction with linear region slopes being calculated by plotting A405 vs time (min). The IC50 values representing the concentration of compound serving to decrease the enzymatic activity of the untreated control by 50% were calculated and are given as the mean and standard error of three repeated experiments. The combination index (CI) was calculated using the Chou-Talalay method^6

[2] = target: T2, human TrxR1 (Homo sapiens, UniProt Q16881); test: Isolated TrxR1 inhibition (DTNB assay); type: biochemical; details: 75 min incubation at 37 °C
T2 construct: purchased SeLENOZYME
T2 sequence (Q16881 1-499 isoform Q16881-5): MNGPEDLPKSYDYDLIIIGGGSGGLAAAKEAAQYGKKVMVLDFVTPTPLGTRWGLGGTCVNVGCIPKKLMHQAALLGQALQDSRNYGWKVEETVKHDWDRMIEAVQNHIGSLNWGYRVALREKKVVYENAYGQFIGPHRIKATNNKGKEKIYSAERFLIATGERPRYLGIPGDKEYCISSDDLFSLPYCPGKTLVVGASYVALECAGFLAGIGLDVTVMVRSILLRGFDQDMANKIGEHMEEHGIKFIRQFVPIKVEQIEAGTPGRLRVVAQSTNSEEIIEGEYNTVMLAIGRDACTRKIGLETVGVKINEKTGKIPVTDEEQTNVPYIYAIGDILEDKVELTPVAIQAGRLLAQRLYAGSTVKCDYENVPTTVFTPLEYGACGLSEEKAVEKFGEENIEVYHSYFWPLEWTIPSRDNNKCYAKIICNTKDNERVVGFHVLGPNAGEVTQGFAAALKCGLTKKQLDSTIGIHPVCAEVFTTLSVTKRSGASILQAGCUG
Description: as §1, §2

[3] = system: reducing enzymes, such as lipoamide dehydrogenase, glutathione reductase, and TrxR; type: cell-based
Description: We thus explored several targets in addition to cellular and organelle uptake after 24 h incubation. A lipoate‐to‐dihydrolipoate reduction assay in HCT‐116 cells was used to evaluate the ability of the complexes to inhibit reducing enzymes, such as lipoamide dehydrogenase, glutathione reductase, and TrxR.^[ [25] ^]
In short, HCT-116 cells were harvested and seeded at a density of 10,000 cells/well in 96-well culture plates. Following an overnight incubation at 37°C under a 5% CO2 atmosphere, the medium was replaced, and the cells incubated with 1 µM of each complex for additional 24 hr. Thereafter, the media were removed from each well, which were then washed with 200 μL of HBSS solution. Finally, 100 µL of 5 mM lipoate and 1 mM of DTNB solutions were added to each well. The absorbance of each well at 405 nm was recorded immediately and once every 20 min for one hour using a microplate reader. Plates were covered with aluminum foil between readings.

[4] = system: A2780 (ovarian carcinoma); test: Antiproliferative MTT assay, A2780; type: cell-based, human; details: A2780, 72 h incubation
Description: (§3) We examined the antiproliferative activity of the heterometallic complexes 3–5 and compared them against their monometallic constituent components, as well as a physical 1:1:1 mixture of 1 + Oxa + 2 after 72 h incubation across a panel of five cancer cell lines: A2780 (ovarian carcinoma), A2780cis (ovarian carcinoma resistant to cisplatin, also referred to as A2780CP), CT26 WT (murine colorectal carcinoma), A375 (melanoma), and PC9 (non‐small cell lung cancer).
(§4) A375 melanoma cells (5000 cells/well), PC9 […] cells (5000 cells/well), CT26 WT murine colon carcinoma cells (5000 cells/well), A2780 ovarian carcinoma cells (5000 cells/well), and A2780cis cisplatin-resistant ovarian carcinoma cells (7000 cells/well), were seeded in flat-bottom 96-well plates in their respective cell culture media (100 µL) and incubated at 37°C in a 5% CO2 environment for 24 h. After that, the media were replaced with the fresh media. Stock solutions of the compounds in DMSO or in cell culture medium (for Oxa) were freshly prepared and diluted with the respective cell culture medium to graded concentrations (final concentration of DMSOmax: 0.5% v/v). After 72 h of exposure, the media were removed and 100 µL of 0.5 mg/mL 3-(4,5-dimethylthiazol-2-yl)-2,5-diphenyl tetrazolium bromide (MTT) in DMEM or RPMI were added and the plate in question further incubated for an additional 1 h. The media containing the MTT solution was removed and the resulting formazan crystals were dissolved in 100 µL DMSO. The absorbance of the solution in each well was read at 570 nm using a BioTek Cytation3 plate reader. The IC50 value, which is the drug concentration needed for 50% reduction in survival, based on the survival curve, was calculated by fitting nonlinear curves in GraphPad Prism 5 Ver 5.03, using a normalized response variable slope model constructed by plotting cell viability (%) vs log of the concentration of the complex in question in nM. The results are presented as the mean values of three independent experiments.

[5] = system: A375 (melanoma); test: Antiproliferative MTT assay, A375; type: cell-based, human; details: A375, 72 h incubation
Description: as §3, §4

[6] = system: HCT-116 cells; test: Total cellular metal accumulation (ICP-MS); type: cell-based; details: 1 µM, 24 h
Description: It is important to note the TrxR assay was performed using isolated enzymes. […] Recognizing this, we incubated HCT‐116 cells with 1 µM of complexes 1–5 for 24 h and quantified the total metal content via ICP‐MS (Figure 4a).
1 x 10^6 HCT-116 cells were seeded in a 6-well plate (2 mL RPMI-1640). After incubating overnight, the medium was replaced, and the cells were treated with the test compounds (1 µM) for 24 h. The resulting cell monolayers were washed twice with cold PBS, harvested and counted in PBS for a total volume of 400 µL. Samples were divided, and each was mineralized with 1 mL aqua regia and evaporated to dryness on a 110 °C hot plate overnight. Later, 1 mL of 2% HCl + 1% thiourea was added to each vial. Samples were quantified via ICP-MS. Metal accumulation levels were determined using the relative isotopic prevalence of ^195Pt, ^101Ru, and ^197Au.

[7] = system: CT26 WT (murine colorectal carcinoma); test: Antiproliferative MTT assay, CT26 WT; type: cell-based; details: CT 26 WT, 72 h incubation
Description: as §3, §4

[8] = system: A2780cis (ovarian carcinoma resistant to cisplatin); test: Antiproliferative MTT assay, A2780cis; type: cell-based, human; details: A2780 CisR, 72 h incubation
Description: as §3, §4

[9] = system: PC9 (non-small cell lung cancer); test: Antiproliferative MTT assay, PC9; type: cell-based, human; details: PC9, 72 h incubation
Description: as §3, §4

[10] = system: CT26 cells; test: Extracellular HMGB1 release (ELISA); type: cell-based, murine; details: IC50 concentrations, 24 h
Description: Oxa alone produced a modest effect, consistent with its known ICD profile.^[ [5] ^]
1 x 10^6 CT-26 cells were seeded in a 6-well plate (2 mL RPMI-1640). […] The HMGB1 release of the supernatant was quantified using HMGB1 Detection Kit ELISA (Chondrex, Catalog 6010) according to the manufacturer’s instructions.

T1 sequence (Q9NNW7 37-524): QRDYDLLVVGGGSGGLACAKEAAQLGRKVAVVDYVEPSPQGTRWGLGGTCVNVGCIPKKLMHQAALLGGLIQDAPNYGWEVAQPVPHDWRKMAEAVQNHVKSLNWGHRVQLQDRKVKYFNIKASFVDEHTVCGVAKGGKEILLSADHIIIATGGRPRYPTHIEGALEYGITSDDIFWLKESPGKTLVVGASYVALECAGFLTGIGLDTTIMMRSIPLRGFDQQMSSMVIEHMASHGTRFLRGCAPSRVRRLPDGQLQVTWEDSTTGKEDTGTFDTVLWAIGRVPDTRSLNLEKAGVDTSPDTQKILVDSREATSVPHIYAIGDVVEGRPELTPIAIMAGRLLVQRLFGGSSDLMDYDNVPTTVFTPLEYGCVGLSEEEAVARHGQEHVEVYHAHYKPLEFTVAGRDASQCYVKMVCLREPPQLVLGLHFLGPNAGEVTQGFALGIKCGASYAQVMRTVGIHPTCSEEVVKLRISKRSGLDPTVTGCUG

| Structure (SMILES) | IC50 [1] [µM] | IC50 [2] [µM] | dihydrolipoate production relative to control ([3]; HCT-116 cells, 1 µM, 24 h) | IC50 [4] [µM] | IC50 [5] [µM] | total cellular metal uptake [6] | IC50 [7] [µM] | IC50 [8] [µM] | dihydrolipoate production relative to control [3] | IC50 [9] [µM] | Extracellular HMGB1 release [10] |
| --- | --- | --- | --- | --- | --- | --- | --- | --- | --- | --- | --- |
| CC(=O)OC[C@H]1O[C@@H]([S-])[C@H](OC(C)=O)[C@@H](OC(C)=O)[C@@H]1OC(C)=O.CCP(CC)CC.[Au+] [Auranofin, reference compound] | 0.22 ± 0.04 | 0.06 ± 0.02 | 55% |  |  |  |  |  |  |  |  |
| Cc1ccc(C(C)C)cc1.O=C(O)c1ccc(NC(=S)c2ccccn2)cc1.[Cl-].[Cl][Ru+] [Complex 1, [Chlorido(η6-p-cymene)(N-(4-benzoic acid)-2-pyridinecarbothioamide)ruthenium(II)] chloride] | 4.36 ± 0.41 | 3.44 ± 0.32 |  | 15.7 ± 4.3 | > 40 | low accumulation of ruthenium | > 40 | > 40 | activity similar to untreated cells (control) | > 40 |  |
| Cc1cc(C)c(-n2ccn(CCOC(=O)NCCN)[c]2=[Au-3]=[c]2n(-c3c(C(C)C)cccc3C(C)C)c3c(n2-c2c(C(C)C)cccc2C(C)C)C(=O)c2ccccc2C3=O)c(C)c1.O=C([O-])C(F)(F)F [Complex 2, (1-(2-(((2-Aminoethyl)carbamoyl)oxy)ethyl)-3-mesityl-1,3-dihydro-2H-2λ3-imidazol-2-yl)(1,3-bis(2,6-diisopropylphenyl)-4,9-dioxo-1,3,4,9-tetrahydro-2H-2λ3-naphtho[2,3-d]imidazol-2-yl)gold (I) TFA salt] | 1.27 ± 0.21 | 1.62 ± 0.13 | 72% | 0.34 ± 0.08 | 2.48 ± 0.35 |  | 14.9 ± 0.4 | 0.56 ± 0.09 |  | 0.49 ± 0.13 |  |
| O=C1[O][Pt]2([NH][C@@H]3CCCC[C@H]3[NH]2)[O]C1=O [Oxa, oxaliplatin, reference compound] | 28.2 ± 2.9 | 25.6 ± 3.7 | activity similar to untreated cells (control) | 0.29 ± 0.03 | 3.16 ± 0.49 |  | 20 ± 1.4 | 1.01 ± 0.22 |  | 8.2 ± 1 | modest effect |
